Experimental findings from US5399552A, “Antibiotic peptides bearing aminoalkylthioether moieties” (Merck & Co, Inc, priority 1991, dated 1995) are described below.

A word on the MFC: it is the smallest concentration meeting the test's criterion for killing the fungus. Lower therefore signals greater fungicidal potency.

Experiment [1] has as its system C. pseudotropicalis MY 1100. The experiment can be described thus: Minimum fungicidal concentration (MFC), microbroth dilution assay in YNBD. In kind it is cell-based, Candida pseudotropicalis. To be noted: 35° C. 24 hours, then SDA 24 hours at 28° C. The protocol: (§1) The compounds of the present invention are active against many fungi and particularly against Candida species. The antifungal properties may be illustrated with the minimum fungicidal concentration (MFC) determination against certain Candida organisms in a microbroth dilution assay carried out in a Yeast Nitrogen Base (Difco) medium with 1% dextrose (YNBD).
(§2) In carrying out the assay, Compound A-Ia was solubilized in 10 percent dimethyl sulfoxide (DMSO) and diluted to 2560 μg/ml. The compound was then diluted to 256 μg/ml in YNBD.
(§3) The yeast cultures, maintained on Sabouraud dextrose agar were transferred to YN broth (Difco) and incubated overnight at 35° C. with shaking (250 rpm). After incubation, each culture was diluted in sterile water to yield a final concentration of 1-5×10^6 colony forming units (CFU)/ml.
(§4) 96-well microplates were inoculated using a MIC-2000 (Dynatech) which delivers […] per well yielding a final inoculum per well of 1.5-7.5×10^3 cells. The microplates were incubated at 35° C. for 24 hours. The minimum inhibitory concentrations (MICs) were recorded as the lowest concentrations of drug showing no visible growth.
(§5) After recording the MIC, the plates were shaken to resuspend the cells. […] The inoculated trays were incubated 24 hours at 28° C. and then read for minimum fungicidal concentration (MFC). […]

The next experiment relates to Pneumocystis carinii. Briefly: Pneumocystis carinii pneumonia in immunosuppressed rats, lung cysts. The class given is in vivo, Sprague-Dawley rats. To be noted: sc twice daily for four days, compared with untreated or solvent controls. As to the method: The compounds of the present invention may also be useful for inhibiting or alleviating Pneumocystis carinii infections in immune compromised patients. […] Before drug treatment, two rats are sacrificed to confirm the presence of Pneumocystis carinii pneumonia (PCP). Five rats (weighing approximately 150 grams) are injected twice daily for four days subcutaneously (sc) with Compound A-Ia in 0.25 ml of vehicle (distilled water). A vehicle control is also carried out. All animals continue to receive dexasone in the drinking water and low protein diet during the treatment period. At the completion of the treatment, all animals are sacrificed, the lungs are removed and processed, and the extent of disease determined by microscopic examination of stained slides for the presence of cysts.

A further experiment has as its system Candida albicans MY 1055. The experiment can be described thus: In vivo effectiveness in mice infected I.V. with Candida albicans, kidney CFU. Set-up: species or system female DBA/2 mice. The note with it: 0.4 mg/kg I.P. twice daily for four consecutive days; kidneys of DBA/2 mice after seven days. As to the method: Growth from an overnight SDA culture of Candida albicans MY 1055 was suspended in sterile saline and the cell concentration determined by hemacytometer count and the cell suspension adjusted to 3.75 x 10^5 cells/mi. Then 0.2 milliliter of this suspension was administered I.V. in the tail vein of mice so that the final inoculum was 7.5×10^4 cells/mouse.
The assay then was carried out by administering aqueous solutions of Compound A-Ia at various concentrations intraperitoneally (I.P.), twice daily (b.i.d.) for four consecutive days to 18 to 20 gram female DBA/2 mice, which previously had been infected with Candida albicans in the manner described above. Distilled water was administered I.P. to C. albicans challenged mice as controls. After seven days, the mice were sacrificed by carbon dioxide gas, paired kidneys were removed aseptically and placed in sterile polyethylene bags containing 5 milliters of sterile saline. The kidneys were homogenized in the bags, serially diluted in sterile saline and aliquots spread on the surface of SDA plates. The plates were incubated at 35° C. for 48 hours and yeast colonies were enumerated for determination of colony forming units (CFU) per gram of kidneys. Compound A-Ia gave 99 percent reduction of recoverable Candida CFUs at 0.4 mg/kg I.P. twice daily for four consecutive days.

For the next experiment, the system named is C. Albicans MY 1055. Briefly: Minimum fungicidal concentration (MFC), microbroth dilution assay in YNBD. The class given is cell-based, Candida albicans. To be noted: 35° C. 24 hours, then SDA 24 hours at 28° C. The protocol:
as §1, §2, §3, §4
(§6) After recording the MIC, the plates were shaken to resuspend the cells. Thereafter, 1.5 μl samples from the wells in the 96-well microplate were transferred to a single well tray containing Sabouraud dextrose agar. The inoculated trays were incubated 24 hours at 28° C. and then read for minimum fungicidal concentration (MFC). MFC is defined as the lowest concentration of drug showing no growth or less than 4 colonies per spot.

In a further experiment the test system is C. Albicans MY 1730. Described as above. To be noted: 35° C. 24 hours, then SDA 24 hours at 28° C. The class given is cell-based, Candida albicans. The protocol:
as §1, §2, §3, §4, §6

The subject of the next experiment is C. Albicans MY 1028. The experiment is described as above. The class given is cell-based, Candida albicans. To be noted: 35° C. 24 hours, then SDA 24 hours at 28° C. As to the method: as §1, §2, §3, §4, §6
A further experiment concerns C. parapsilosis MY 1010. Described as above. In kind it is cell-based, Candida parapsilosis. To be noted: 35° C. 24 hours, then SDA 24 hours at 28° C. The protocol:
as §1, §2, §3, §4, §5

The next experiment relates to C. tropicalis MY 1012. The description is as above. In kind it is cell-based, Candida tropicalis. To be noted: 35° C. 24 hours, then SDA 24 hours at 28° C. The protocol:
as §1, §2, §3, §4, §5

On to “1-[4-hydroxy-5-aminoethylthio-N^2 -(10,12-dimethyl-1-oxotetradecyl)ornithine]-5-(3-hydroxyglutamine)-6-(3-hydroxyproline)echinocandin B trifluoroacetate [Compound A-Ia]”, for which the MFC was found to be 0.25 µg/mL in experiment [1]; 0.5 µg/mL in the experiment on C. Albicans MY 1055; 0.125 µg/mL in the experiment with C. Albicans MY 1730; 0.5 µg/mL in the experiment on C. Albicans MY 1028; 0.25 µg/mL against C. parapsilosis MY 1010; 0.125 µg/mL against C. tropicalis MY 1012. In addition, the “extent of disease: cysts in stained slides from the lungs” value with Pneumocystis carinii is “prevention of or reduction of cysts”. Moreover, the “reduction of recoverable Candida CFUs” value in the experiment with Candida albicans MY 1055 is listed as 99%.
